Laboratory results: article PMC8541546, “Identification of HLA-A2-Restricted Mutant Epitopes from Neoantigens of Esophageal Squamous Cell Carcinoma” (Vaccines, 2021)

Legend:
HLA-A*0201 molecule = molecular target: T1, HLA-A*0201 molecule (Homo sapiens, UniProt P04439, D140Y/D185E/D98H/E176V/E277Q/G131W/G231S/I119V/I121R/I166T/I218V/L300P/L318F/N151K/N90K/P208A/P217A/Q86G/Q94H/R138H/R169H/T345S); test: T2A2 cell-binding assay; conditions: T2A2 cells; FI = (MFI of peptide - MFI of control without peptide)/MFI of control without peptide; anti-HLA-A2 BB7.2, flow cytometry; FI > 1 = high binding affinity
T1 construct: T2A2 cells (TAP-deficient HLA-A2 molecules overexpressing, cultured in IMDM medium); host or cells: T2A2 cells
Description: The binding affinity of neoepitope to the MHC molecule and the stable neoepitope/MHC complex are critical for inducing T cell immune response, so we first performed a T2A2 cell-binding assay and stabilization assay. The T2A2 cell-binding assay was measured as in our previous study. The binding affinity was computed as follows: fluorescence index (FI) = (mean fluorescence intensity (MFI) of peptide group-MFI of the dissolved buffer without peptide group)/MFI of the dissolved buffer without peptide group.

[1] = system: peptide-pulsed T2A2 cells; test: IFN-γ intracellular staining of peptide-induced T cells from donor PBMCs; format: cell-based, human; conditions: PBMCs of HLA-A2+ donors B–F, DCs pulsed with 10 μg/mL peptide, three rounds
Description: (§1) DCs involve and play an important role in initiating CD8^+ T cell response. Consequently, ten HLA-A2^+ healthy donors’ PBMCs were isolated, autologous DCs were generated, and CTLs were induced according to the procedure described previously. In brief, PBMCs were seeded at a density of 5 × 10^6 cells/well in a 6-well plate, and after 3 h, the non-adherent cells were removed and cryopreserved for future incubation with mature autologous DCs. Differentiation of the adherent cells into dendritic cells was induced by GM-CSF (100 ng/mL, #300-03, PeproTech, Rocky Hill, NJ, USA) and IL-4 (100 ng/mL; #200-04, PeproTech, USA), with replenishment every 2 days. On day 5, maturation of DCs was induced using 100 ng/mL LPS (#L4516, Sigma-Aldrich, St. Louis, MO, USA), and maturation was checked on day 8 by flow cytometry (BD FACSCelesta™) using markers for anti-human HLA-DR, anti-human CD80, and anti-human CD86. Then, mature DCs (1 × 10^5) were pulsed with each 10 μg /mL individual peptide or no peptides (control) for 2 h at 37 °C. Next, peptide-pulsed DCs were used to prime the previously cryopreserved autologous peripheral blood lymphocytes (PBLs) at a DC/PBL ratio of 1:10 using complete RPMI-1640 media supplemented with 100 IU/mL rhIL-2 (#200-02, PeproTech, USA) and 10 ng/mL rhIL-7 (#200-07, PeproTech, USA). Half of the feeding medium was replenished every 2 days. After 7 days, PBLs were restimulated with freshly pulsed autologous DCs every 7 days.
When target cells were peptide-pulsed T2A2 cells (MUT peptide or its corresponding WT peptide), peptide-specific T cells (from HLA-A2^+ healthy donors B–F) stimulated by MUT peptides were co-cultured with these cells in the presence of BFA for 5 h. Then T cells were marked by anti-human CD3 and anti-human CD8α monoclonal antibody. Thirty minutes later, cells were fixed by fixation buffer (Thermo Scientific, Waltham, MA, USA) for thirty minutes and washed by permeabilization buffer (Thermo Scientific, USA). Permeabilized T cells were marked by anti-human IFN-γ monoclonal antibody.

[2] = system: peptide-pulsed T2A2 cells; test: Cytotoxicity assay of peptide-induced T cells from donor PBMCs; format: cell-based, human; conditions: donors B–F; E/T 12.5:1, 25:1, 50:1; T2A2 loaded with 50 μg/mL peptide
Description: as §1
The cytotoxicity of peptide-specific T cells stimulated by mutant peptides was tested by using Cell Trace Far Red (Thermo Scientific, USA). Transfected cells were suspended in PBS (1 × 10^6 cells/mL) and labelled with Cell Trace Far Red as follows: Control target cells and test target cells were marked by 50 μM and 1 mM Cell Trace Far Red, respectively, at 37 °C for 20 min, protected from light. After incubation, target cells were washed with complete media at 37 °C for 5 min. […] Subsequently, test target cells were mixed with control target cells in a tube, washed once, and analyzed by flow cytometry. Specific lysis (%) = (numbers of control target cells—numbers of test target cells)/numbers of control target cells × 100% [28, 29], where, for tumor cells, the control target cells refer to KYSE140-WT cells marked with 50 μM Cell Trace Far Red, and the test target cell refers to KYSE140-WT or KYSE140-MUT cells marked with 1 mM Cell Trace Far Red, respectively (peptide-specific T cells generated from donors G–K’s PBMCs in vitro or generated from spleen lymphocytes of HLA-A2.1/K^b Tg mice in vivo). Additionally, for T2A2 target cells, T2A2 cells unpulsed and marked with 50 μM Cell Trace Far Red were used as the control target cells, while T2A2 cells loaded with MUT peptides or the corresponding WT peptides (50 μg/mL) or T2A2 cells only were marked with 1 mM Cell Trace Far Red and were used as test target cells (peptide-specific T cells stimulated from donors B–F’s PBMCs).

[3] = molecular target: T2, peptide/HLA-A*0201 complex (Homo sapiens, UniProt P04439, D140Y/D185E/D98H/E176V/E277Q/G131W/G231S/I119V/I121R/I166T/I218V/L300P/L318F/N151K/N90K/P208A/P217A/Q86G/Q94H/R138H/R169H/T345S); test: peptide/MHC complex stabilization assay on T2A2 cells; format: binding; conditions: T2A2 cells pulsed with 50 μg/mL peptide and 3 μg/mL β2-M 18 h, BFA 1 h; MFI at 0, 2, 4, 6 h; time of half losing MFI of 0 h
T2 construct: T2A2 cells (TAP-deficient HLA-A2 molecules overexpressing, cultured in IMDM medium); β2-M from Merck; host or cells: T2A2 cells
Description: For the stabilization test, T2A2 cells were pulsed with 50 μg/mL mutant peptide and 3 μg/mL β2-Microglobulin (β2-M, Merck, Kenilworth, NJ, USA) in IMDM (serum-free) medium for 18 h. After three times washing, free peptides were removed and brefeldin A (BFA, 10 μg/mL, BD Bioscience, San Diego, CA, USA) was added. BFA was removed after 1 h impeding, and the cells were incubated for additional time. Finally, T2A2 was marked with anti-human HLA-A2 PE-Cyanine7 for 30 min, then analyzed by FACS Calibur (BD Bioscience, USA). MFI of 0 h was set as 100%, and the time of half losing MFI of 0 h defined the dissociation complex 50 (DC50). DC50 was computed as follows: (MFI of 0 h-MFI of (2, 4, or 6 h))/MFI of 0 h × 100%.

| FI (fluorescence index) (HLA-A*0201 molecule) | DC50 (dissociation complex 50) [3] [h] | Sequence | IFN-γ release of MUT peptide-induced T cells, MUT versus WT peptide-loaded T2A2 cells [1] | lysis cytotoxicity of MUT peptide-induced T cells on T2A2 cells [2] |
| --- | --- | --- | --- | --- |
| 1.85 | >4 | QVTDFLAPL [PCLO-E4090Q] | immunogenic | could efficiently lyse corresponding MUT peptide-pulsing T2A2 cells |
| 1.81 | >6 | LLGPNSFEV [TP53-R267P] | immunogenic | could efficiently lyse corresponding MUT peptide-pulsing T2A2 cells |
| 1.67 | >6 | ILWRQDINL [NFE2L2-D13N] | immunogenic | could efficiently lyse corresponding MUT peptide-pulsing T2A2 cells |
